Columns and labels:
Assay type in all cases: in vitro ADME
[1] = Stability in Simulated Intestinal Fluid (SIF); details: 37° C., 0.01 mg/mL
Description: (§1) Stability in Simulated Gastric Fluid (SGF) and Simulated Intestinal Fluid (SIF). Procedure from Baudy et. al. (J. Med. Chem. 2009, 52, 771-778) used. The physiological stability of prodrugs was determined by examining the stability of the compound in SGF, and SIF at 37° C. The compounds were prepared in a 9:1 mixture of the appropriate test component (SGF, SIF) and acetonitrile to a final concentration of 0.01 mg/mL. The samples were thoroughly mixed and maintained at 37° C. Each sample was injected consecutively onto an Agilent 1100 system (Luna C18, 3 μm, 50 mm×3 mm; 1 mL/min; mobile phase of 0.1% trifluoroacetic acid in water/0.1% trifluoroacetic acid in acetonitrile) after a 3 h period. The percent remaining of prodrug was calculated by comparing the area of prodrug compound versus riluzole generated. The identities of the parent compounds and conversion products were confirmed by LC/MS.

[2] = Metabolic stability in pooled human liver microsomes; details: human liver microsomes 0.5 mg/mL, 1 uM, 37° C., NADPH
Description: (§2) Metabolic Stability: In vitro metabolic stability was determined in pooled mouse or human liver microsomes (BD Gentest) at a protein concentration of 0.5 mg/mL in reaction buffer (100 mM KH2PO4, pH 7.4 and 12 mM MgCl2). Each drug candidate was added to a final concentration of 1 uM. This mixture was pre-warmed to 37° C. for 10 minutes prior to starting the reaction with the addition of β-Nicotinamide adenine dinucleotide 2′-phosphate reduced (NADPH) to a final concentration of 1 mM. A parallel incubation lacking NADPH served as the control. After incubation for 30 min at 37° C., the reactions were quenched by the addition of acetonitrile containing 0.1% formic acid and internal standard, vortex mixed for 2 minutes and centrifuged at 4000 rpm for 10 minutes to pellet the precipitated protein. The resulting supernatant containing the drug candidate and its potential metabolites was diluted 5-fold with water containing 0.1% formic acid and submitted to LC-MS/MS analysis. […]
(§3) LC-MS/MS Analysis: An aliquot from each incubation was analyzed by LC-MS/MS with SRM detection in the positive ionization mode using an ABSciex API 5500 QTrap Mass Spectrometer interfaced via the ABSciex Turbo V IonSpray source (ESI) to an Eksigent ExpressHT LC system. […] A fast gradient, from 15 to 85% organic in 2.5 minutes, with run time of 5.0 minutes, and flow rate of 50 ul/min was utilized. Peak areas were integrated using MultiQuant v2.0 software from ABSciex.

[3] = Plasma stability in fresh mouse plasma; details: 1 uM, 37° C.
Description: (§4) Plasma Stability: Assessment of plasma stability was carried out by individual incubations of drug candidates in fresh mouse or human control plasma at a concentration of 1 uM for 1 hour at 37° C. After which, the samples were de-proteinized by addition of 2 volumes of acetonitrile containing 0.1% formic acid and internal standard, vortex mixed for 2 minutes and centrifuged at 4000 rpm for 10 minutes to pellet precipitated protein. The resulting supernatant containing the drug candidates was diluted 5-fold with water containing 0.1% formic acid and submitted to LC-MS/MS analysis. All determinations were done in triplicate. […]
as §3

[4] = Metabolic stability in pooled mouse liver microsomes; details: mouse liver microsomes 0.5 mg/mL, 1 uM, 37° C., NADPH
Description: as §2, §3

[5] = Plasma stability in fresh human plasma; details: 1 uM, 37° C.
Description: as §4, §3

[6] = Stability in Simulated Gastric Fluid (SGF); details: 37° C., 0.01 mg/mL
Description: as §1

| Structure (SMILES) | SIF (3 hours): percent of prodrug metabolized to riluzole [1] [%] | Metabolic Stability human (30 minutes): percent of prodrug metabolized to riluzole [2] [%] | Plasma Stability mouse (1 hour): percent of prodrug metabolized to riluzole [3] [%] | Metabolic Stability mouse (30 minutes): percent of prodrug metabolized to riluzole [4] [%] | Plasma Stability Human (1 hour): percent of prodrug metabolized to riluzole [5] [%] | SGF (3 hours): percent of prodrug metabolized to riluzole [6] [%] |
| --- | --- | --- | --- | --- | --- | --- |
| C[C@H](N)C(=O)Nc1nc2ccc(OC(F)(F)F)cc2s1 [Cpd 7, (S)-2-Amino-N-(6-trifluoromethoxy-benzothiazol-2-yl)-propionamide] | 50 | 0 | 28 | 1 | 10 | 0 |
| N[C@H](Cc1ccccc1)C(=O)Nc1nc2ccc(OC(F)(F)F)cc2s1 [Cpd 4, (R)-2-Amino-3-phenyl-N-(6-trifluoromethoxy-benzothiazol-2-yl)-propionamide] | 0 | 18 | 47 | 12 | 6 | 3 |
| CNCCCCC(=O)Nc1nc2ccc(OC(F)(F)F)cc2s1 [Cpd 25, 5-Methylamino-pentanoic acid (6-trifluoromethoxy-benzothiazol-2-yl)-amide] | 0 | 0 | 0 | 78 | 0 | 0 |
| CCOC(=O)Nc1nc2ccc(OC(F)(F)F)cc2s1 [Cpd 13, (6-Trifluoromethoxy-benzothiazol-2-yl)-carbamic acid ethyl ester] | 0 | 7 | 0 | 8 | 0 | 0 |
| CC(C)COC(=O)Nc1nc2ccc(OC(F)(F)F)cc2s1 [Cpd 16, (6-Trifluoromethoxy-benzothiazol-2-yl)-carbamic acid isobutyl ester] | 0 | 14 | 0 | 23 | 0 | 5 |
| CCCOC(=O)Nc1nc2ccc(OC(F)(F)F)cc2s1 [Cpd 14, (6-Trifluoromethoxy-benzothiazol-2-yl)-carbamic acid propyl ester] | 0 | 34 | 0 | 15 | 0 | 0 |
| Nc1ccc(C(=O)Nc2nc3ccc(OC(F)(F)F)cc3s2)cc1 [Cpd 28, 4-Amino-N-(6-trifluoromethoxy-benzothiazol-2-yl)-benzamide] | 0 | 80 | 0 | 24 | 0 | 0 |
| O=C(CCC(=O)Nc1nc2ccc(OC(F)(F)F)cc2s1)NCc1cccnc1 [Cpd 23, N-Pyridin-3-ylmethyl-N′-(6-trifluoromethoxy-benzothiazol-2-yl)-succinamide] | 10 | 4 | 26 | 0 | 0 | 0 |
| O=C(CCC(=O)Nc1nc2ccc(OC(F)(F)F)cc2s1)NCCN1CCOCC1 [Cpd 24, N-(2-Morpholin-4-yl-ethyl)-N′-(6-trifluoromethoxy-benzothiazol-2-yl)-succinamide] | 60 | – | – | – | – | 0 |
| NCC(=O)Nc1nc2ccc(OC(F)(F)F)cc2s1 [Cpd 1, 2-Amino-N-(6-trifluoromethoxy-benzothiazol-2-yl)-acetamide] | – | 7 | 11 | 4 | 3 | – |
| CCCCOC(=O)Nc1nc2ccc(OC(F)(F)F)cc2s1 [Cpd 15, (6-Trifluoromethoxy-benzothiazol-2-yl)-carbamic acid butyl ester] | 0 | 13 | 9 | 53 | 0 | 0 |
| N[C@@H](COCc1ccccc1)C(=O)Nc1nc2ccc(OC(F)(F)F)cc2s1 [Cpd 10, (S)-2-Amino-3-benzyloxy-N-(6-trifluoromethoxy-benzothiazol-2-yl)-propionamide] | 0 | 15 | 52 | 0 | 9 | 0 |
| N[C@H](COCc1ccccc1)C(=O)Nc1nc2ccc(OC(F)(F)F)cc2s1 [Cpd 5, (R)-2-Amino-3-benzyloxy-N-(6-trifluoromethoxy-benzothiazol-2-yl)-propionamide] | – | 0 | 25 | 24 | 3 | – |
| N[C@@H](Cc1ccccc1)C(=O)Nc1nc2ccc(OC(F)(F)F)cc2s1 [Cpd 9, (S)-2-Amino-3-phenyl-N-(6-trifluoromethoxy-benzothiazol-2-yl)-propionamide] | – | 0 | 0 | 2 | 7 | – |
| NCC1(CC(=O)Nc2nc3ccc(OC(F)(F)F)cc3s2)CCCCC1 [Cpd 29, 2-(1-Aminomethyl-cyclohexyl)-N-(6-trifluoromethoxy-benzothiazol-2-yl)-acetamide] | 50 | – | – | – | – | 0 |
| CN(C)CCCOC(=O)Nc1nc2ccc(OC(F)(F)F)cc2s1 [Cpd 19, (6-Trifluoromethoxy-benzothiazol-2-yl)-carbamic acid 3-dimethylamino-propyl ester] | 0 | 0 | 0 | 71 | 0 | 0 |
| CCCCCCOC(=O)Nc1nc2ccc(OC(F)(F)F)cc2s1 [Cpd 17, (6-Trifluoromethoxy-benzothiazol-2-yl)-carbamic acid hexyl ester] | – | – | – | – | – | 0 |

From patent publication US12172974B2 (Biohaven Pharmaceutical Holding Company Ltd., priority 2012, dated 2024)
